Measurements published in ChEMBL document CHEMBL1201862, “PubChem BioAssay data set” (2004).
Activity calls are given as the source filed them.

Assays:
[1] = target: FAD-linked sulfhydryl oxidase ALR (Homo sapiens, UniProt P55789); assay: ALR-catalysed DTT oxidation blockers – biochemical, H2O2 detection, luminescence, cherry-pick, dose response (AID 493248)
[2] = target: T1, Replicative DNA helicase DnaB (Mycobacterium tuberculosis, UniProt P9WMR3); assay: DnaB intein splicing inhibitors, dose response, biochemical, cell-free fluorescence (AID 449749); type: functional
T1 sequence (P9WMR3 whole entry): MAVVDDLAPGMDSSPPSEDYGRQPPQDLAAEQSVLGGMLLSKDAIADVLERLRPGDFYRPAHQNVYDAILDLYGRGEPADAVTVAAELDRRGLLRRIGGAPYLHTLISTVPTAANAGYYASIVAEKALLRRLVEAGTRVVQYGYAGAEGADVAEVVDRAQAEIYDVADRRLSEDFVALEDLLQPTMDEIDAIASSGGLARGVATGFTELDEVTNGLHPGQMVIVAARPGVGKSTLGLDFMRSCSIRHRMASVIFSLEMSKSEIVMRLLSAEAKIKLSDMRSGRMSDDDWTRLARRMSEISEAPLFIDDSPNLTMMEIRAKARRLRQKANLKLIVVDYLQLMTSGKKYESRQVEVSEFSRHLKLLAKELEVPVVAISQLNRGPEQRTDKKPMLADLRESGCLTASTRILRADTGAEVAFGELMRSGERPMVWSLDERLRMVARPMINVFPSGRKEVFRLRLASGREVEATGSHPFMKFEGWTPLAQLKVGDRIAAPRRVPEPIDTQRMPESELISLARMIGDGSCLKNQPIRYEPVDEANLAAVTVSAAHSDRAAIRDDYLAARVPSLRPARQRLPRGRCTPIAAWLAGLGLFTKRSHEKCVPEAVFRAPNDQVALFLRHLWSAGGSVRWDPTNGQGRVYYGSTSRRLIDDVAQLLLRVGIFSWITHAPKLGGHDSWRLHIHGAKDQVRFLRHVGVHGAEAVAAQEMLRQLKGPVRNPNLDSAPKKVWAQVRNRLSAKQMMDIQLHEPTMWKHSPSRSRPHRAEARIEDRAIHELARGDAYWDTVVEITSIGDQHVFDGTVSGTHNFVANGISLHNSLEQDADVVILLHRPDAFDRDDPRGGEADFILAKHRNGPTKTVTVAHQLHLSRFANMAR

Protein RecA = target: T2, Protein RecA (Mycobacterium tuberculosis, UniProt P9WHJ3); assay: Fluorescence Cell-Free Homogeneous Dose Retest to Identify Inhibitors of RecA-Intein Splicing Activity. [Related pubchem assays (depositor defined):AID2097, AID2223, AID489010, AID492950]; type: functional
T2 sequence (P9WHJ3 whole entry): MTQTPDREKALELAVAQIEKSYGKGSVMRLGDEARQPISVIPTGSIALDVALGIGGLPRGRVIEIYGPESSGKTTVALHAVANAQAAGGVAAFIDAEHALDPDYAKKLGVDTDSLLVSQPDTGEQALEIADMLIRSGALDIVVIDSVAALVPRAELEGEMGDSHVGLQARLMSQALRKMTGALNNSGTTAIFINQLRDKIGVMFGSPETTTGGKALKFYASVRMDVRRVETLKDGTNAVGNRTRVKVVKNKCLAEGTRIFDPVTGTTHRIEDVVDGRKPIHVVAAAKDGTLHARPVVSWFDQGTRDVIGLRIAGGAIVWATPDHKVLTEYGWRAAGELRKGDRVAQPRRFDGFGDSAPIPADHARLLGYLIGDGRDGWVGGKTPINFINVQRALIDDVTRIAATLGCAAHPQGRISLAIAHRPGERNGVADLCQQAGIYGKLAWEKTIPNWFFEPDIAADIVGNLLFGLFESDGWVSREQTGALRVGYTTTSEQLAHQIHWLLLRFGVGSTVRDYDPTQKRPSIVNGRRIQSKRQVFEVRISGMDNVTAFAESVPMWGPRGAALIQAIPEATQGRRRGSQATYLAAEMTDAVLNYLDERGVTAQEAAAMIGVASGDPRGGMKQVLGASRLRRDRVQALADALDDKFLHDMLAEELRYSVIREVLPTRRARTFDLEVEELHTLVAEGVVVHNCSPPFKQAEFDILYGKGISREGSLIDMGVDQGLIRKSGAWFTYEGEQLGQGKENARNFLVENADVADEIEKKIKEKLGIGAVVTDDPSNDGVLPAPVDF

Genome polyprotein = Genome polyprotein (dengue virus type 2, UniProt P29990); assay: flavivirus cap methylation enzyme inhibition – biochemical, confirmation dose response, primary screen (AID 588689); type: functional
Genome polyprotein, sequence (P29990 2492-3391 limits assumed): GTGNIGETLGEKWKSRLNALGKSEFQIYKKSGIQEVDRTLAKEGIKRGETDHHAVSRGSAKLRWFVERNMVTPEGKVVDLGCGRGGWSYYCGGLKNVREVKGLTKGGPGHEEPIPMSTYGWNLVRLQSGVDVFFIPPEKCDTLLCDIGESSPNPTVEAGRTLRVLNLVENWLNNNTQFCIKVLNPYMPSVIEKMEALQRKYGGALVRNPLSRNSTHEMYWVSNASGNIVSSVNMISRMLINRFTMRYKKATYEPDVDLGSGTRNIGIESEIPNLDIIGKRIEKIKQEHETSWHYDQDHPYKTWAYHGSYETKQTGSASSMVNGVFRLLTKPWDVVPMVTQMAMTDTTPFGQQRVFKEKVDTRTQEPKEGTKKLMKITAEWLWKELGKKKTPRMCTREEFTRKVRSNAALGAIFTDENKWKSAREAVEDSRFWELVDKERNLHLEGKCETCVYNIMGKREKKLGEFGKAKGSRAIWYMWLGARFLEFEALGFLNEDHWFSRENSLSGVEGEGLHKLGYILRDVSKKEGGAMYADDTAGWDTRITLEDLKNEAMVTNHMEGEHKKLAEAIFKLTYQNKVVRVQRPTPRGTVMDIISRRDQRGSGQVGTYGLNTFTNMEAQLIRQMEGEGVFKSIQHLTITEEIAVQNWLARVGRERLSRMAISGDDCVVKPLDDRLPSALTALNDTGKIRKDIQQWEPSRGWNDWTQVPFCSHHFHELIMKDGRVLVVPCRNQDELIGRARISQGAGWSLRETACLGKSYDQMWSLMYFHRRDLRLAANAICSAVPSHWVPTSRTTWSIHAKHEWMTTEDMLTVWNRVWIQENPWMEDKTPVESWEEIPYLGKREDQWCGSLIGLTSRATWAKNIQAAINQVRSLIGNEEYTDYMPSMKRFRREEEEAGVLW

[3] = target: Ras and Rab interactor 1/Tyrosine-protein kinase ABL1 (Homo sapiens, UniProt P00519+Q13671); type: functional;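 note: biochemical TR-FRET dose-response test measuring inhibition of binding between Rin1 and Abl proteins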
Ras and Rab interactor 1/Tyrosine-protein kinase ABL1, sequence (P00519 whole entry): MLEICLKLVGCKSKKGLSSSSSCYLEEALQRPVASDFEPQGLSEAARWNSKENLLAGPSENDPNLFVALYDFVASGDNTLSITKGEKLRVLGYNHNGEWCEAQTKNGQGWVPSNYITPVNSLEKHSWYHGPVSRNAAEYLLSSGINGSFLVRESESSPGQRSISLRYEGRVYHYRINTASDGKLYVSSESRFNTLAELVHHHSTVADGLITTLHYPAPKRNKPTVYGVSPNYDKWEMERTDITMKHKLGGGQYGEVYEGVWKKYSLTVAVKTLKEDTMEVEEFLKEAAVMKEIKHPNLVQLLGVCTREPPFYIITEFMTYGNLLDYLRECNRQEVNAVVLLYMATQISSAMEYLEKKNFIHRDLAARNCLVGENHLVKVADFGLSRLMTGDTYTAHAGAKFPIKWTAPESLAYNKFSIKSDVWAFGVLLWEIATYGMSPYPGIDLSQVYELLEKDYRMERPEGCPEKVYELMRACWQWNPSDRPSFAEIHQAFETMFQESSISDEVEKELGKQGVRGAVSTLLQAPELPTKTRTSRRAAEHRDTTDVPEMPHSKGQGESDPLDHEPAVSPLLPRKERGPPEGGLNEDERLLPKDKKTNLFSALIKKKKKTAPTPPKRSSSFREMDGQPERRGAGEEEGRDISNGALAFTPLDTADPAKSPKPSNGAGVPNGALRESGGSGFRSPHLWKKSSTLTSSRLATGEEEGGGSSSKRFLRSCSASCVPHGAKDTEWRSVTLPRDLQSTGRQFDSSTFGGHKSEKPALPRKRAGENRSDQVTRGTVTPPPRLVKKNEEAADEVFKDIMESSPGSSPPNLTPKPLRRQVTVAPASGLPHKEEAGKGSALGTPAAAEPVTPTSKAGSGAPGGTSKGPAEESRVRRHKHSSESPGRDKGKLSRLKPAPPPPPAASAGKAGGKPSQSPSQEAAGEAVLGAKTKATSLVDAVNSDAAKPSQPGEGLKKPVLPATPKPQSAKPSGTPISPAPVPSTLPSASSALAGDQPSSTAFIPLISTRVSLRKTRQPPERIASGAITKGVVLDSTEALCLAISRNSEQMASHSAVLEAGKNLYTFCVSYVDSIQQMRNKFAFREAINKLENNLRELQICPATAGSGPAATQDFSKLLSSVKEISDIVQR
Ras and Rab interactor 1/Tyrosine-protein kinase ABL1, sequence (Q13671 whole entry): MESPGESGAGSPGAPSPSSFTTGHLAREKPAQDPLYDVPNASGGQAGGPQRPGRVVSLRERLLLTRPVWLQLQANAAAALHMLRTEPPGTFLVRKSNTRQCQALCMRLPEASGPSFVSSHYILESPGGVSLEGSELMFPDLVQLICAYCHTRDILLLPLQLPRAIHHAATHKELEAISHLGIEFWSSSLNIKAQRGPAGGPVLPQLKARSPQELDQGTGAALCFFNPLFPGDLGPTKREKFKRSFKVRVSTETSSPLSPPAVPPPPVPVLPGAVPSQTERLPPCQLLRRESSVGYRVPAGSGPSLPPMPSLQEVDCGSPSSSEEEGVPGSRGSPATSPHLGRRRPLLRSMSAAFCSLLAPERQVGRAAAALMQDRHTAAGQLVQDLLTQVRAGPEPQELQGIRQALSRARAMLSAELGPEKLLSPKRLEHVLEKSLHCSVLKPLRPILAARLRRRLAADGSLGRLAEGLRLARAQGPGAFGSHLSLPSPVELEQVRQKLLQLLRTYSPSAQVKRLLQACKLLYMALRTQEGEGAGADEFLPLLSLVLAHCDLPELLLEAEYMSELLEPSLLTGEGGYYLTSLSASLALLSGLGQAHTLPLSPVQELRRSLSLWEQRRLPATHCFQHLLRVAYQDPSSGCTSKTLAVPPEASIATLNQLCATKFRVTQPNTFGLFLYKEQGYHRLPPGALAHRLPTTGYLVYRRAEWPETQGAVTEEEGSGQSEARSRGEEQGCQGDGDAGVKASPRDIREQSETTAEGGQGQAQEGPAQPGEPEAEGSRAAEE

CHO-K1 = assay: (§1) Counterscreen for antagonists of the orexin 1 receptor (OX1R; HCRTR1): Homogeneous time resolved fluorescence (HTRF)-based cell-based dose response assay to identify antagonists of the parental CHO-K1 cell line. [Related pubchem assays (depositor defined):AID434989, AID435008, AID463079, AID485270, AID492963, AID492964, AID492965, AID493232, AID504699, AID504701]; type: functional; details: Cricetulus griseus
[4] = as §1, with “Fluorescence-based” for “Homogeneous time resolved fluorescence (HTRF)-based”, “cell-based high throughput” for “cell-based”, “CHO” for “CHO-K1”; type: functional
[5] = target: T3, Orexin/Hypocretin receptor type 1 (Homo sapiens, UniProt O43613); assay: Homogeneous Time Resolved Fluorescence (HTRF)-based cell-based high throughput dose response assay for antagonists of the orexin 1 receptor (OX1R; HCRTR1). [Related pubchem assays (depositor defined):AID434989, AID435008, AID463079, AID485270, AID492963, AID492964, AID492965, AID493232, AID504717, AID504718]; type: functional
T3 sequence (O43613 whole entry): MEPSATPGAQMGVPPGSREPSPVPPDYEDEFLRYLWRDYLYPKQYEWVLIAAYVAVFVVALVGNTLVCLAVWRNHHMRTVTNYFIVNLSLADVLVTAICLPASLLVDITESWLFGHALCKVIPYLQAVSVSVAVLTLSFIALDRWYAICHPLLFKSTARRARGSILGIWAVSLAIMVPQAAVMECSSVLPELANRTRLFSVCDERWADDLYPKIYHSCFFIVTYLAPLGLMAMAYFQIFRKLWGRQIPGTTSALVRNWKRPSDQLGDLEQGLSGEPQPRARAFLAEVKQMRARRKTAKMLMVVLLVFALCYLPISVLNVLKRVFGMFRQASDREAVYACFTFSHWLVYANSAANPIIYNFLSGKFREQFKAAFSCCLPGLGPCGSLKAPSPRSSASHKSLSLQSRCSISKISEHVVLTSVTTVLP

[6] = target: T3, Orexin/Hypocretin receptor type 1; assay: Fluorescence-based cell-based high throughput dose response assay for antagonists of the orexin 1 receptor (OX1R; HCRTR1). [Related pubchem assays (depositor defined):AID434989, AID435008, AID463079, AID485270, AID492963, AID492964, AID492965, AID493232, AID504717, AID504718]; type: functional
Orexin receptor type 2 [7] = target: T4, Orexin receptor type 2 (Homo sapiens, UniProt O43614); assay: Counterscreen assay for antagonists of the orexin 1 receptor (OX1R; HCRTR1): Fluorescence-based cell-based dose response assay for antagonists of the orexin 2 receptor (OX2R; HCRTR2), run by assay provider.; type: functional
T4 sequence (O43614 whole entry): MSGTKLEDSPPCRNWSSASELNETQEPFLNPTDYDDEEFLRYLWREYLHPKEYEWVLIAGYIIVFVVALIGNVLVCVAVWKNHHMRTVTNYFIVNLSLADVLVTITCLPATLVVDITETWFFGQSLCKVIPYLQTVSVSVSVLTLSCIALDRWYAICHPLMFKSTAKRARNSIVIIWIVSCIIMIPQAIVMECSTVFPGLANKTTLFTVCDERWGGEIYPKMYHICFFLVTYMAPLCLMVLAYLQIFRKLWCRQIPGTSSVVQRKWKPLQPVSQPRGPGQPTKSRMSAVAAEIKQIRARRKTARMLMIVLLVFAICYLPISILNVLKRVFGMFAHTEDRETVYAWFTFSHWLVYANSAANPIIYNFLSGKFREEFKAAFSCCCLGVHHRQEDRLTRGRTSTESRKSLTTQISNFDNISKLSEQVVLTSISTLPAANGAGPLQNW

Orexin receptor type 2 [8] = target: T4, Orexin receptor type 2; assay: Counterscreen assay for antagonists of the orexin 1 receptor (OX1R; HCRTR1): Homogeneous Time Resolved Fluorescence (HTRF)-based cell-based dose response assay for antagonists of the orexin 2 receptor (OX2R; HCRTR2), run by assay provider.; type: functional
[9] = Trypanosoma cruzi growth suppression in host cells – NIH3T3 host cells, beta-gal luminescence, confirmation (AID 2044); type: functional, cell-based;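 note: intracellular parasites grown in NIH/3T3 mouse fibroblasts as host cells; luminescent beta-galactosidase reporter signal from transgenic T. cruzi replicating inside host cells; inhibitors lower the luminescence signal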
[10] = NIH3T3 cell viability loss – ATP luminescence, mouse fibroblasts, counter-screen, dose response (AID 2010); type: functional, cell-based;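 note: cells exposed to compound for about 90 hours before reading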
[11] = target: Heat shock protein HSP 90-alpha (Homo sapiens, UniProt P07900); type: functional, organism-based
Aurora kinase A = target: T5, Aurora kinase A (Homo sapiens, UniProt O14965); type: functional;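 note: value from the Navigating the Kinome kinase panel profiling, panel entry STK6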
T5 sequence (O14965 whole entry): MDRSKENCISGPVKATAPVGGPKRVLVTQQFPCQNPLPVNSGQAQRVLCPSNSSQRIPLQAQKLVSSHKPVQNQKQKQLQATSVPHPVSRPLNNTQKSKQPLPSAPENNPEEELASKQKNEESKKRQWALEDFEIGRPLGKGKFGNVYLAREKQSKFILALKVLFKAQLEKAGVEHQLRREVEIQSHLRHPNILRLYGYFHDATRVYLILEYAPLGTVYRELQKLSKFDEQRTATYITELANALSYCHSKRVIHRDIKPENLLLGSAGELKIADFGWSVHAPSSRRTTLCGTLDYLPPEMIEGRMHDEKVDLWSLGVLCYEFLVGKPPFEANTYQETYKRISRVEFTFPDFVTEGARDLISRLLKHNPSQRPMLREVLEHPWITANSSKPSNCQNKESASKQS

Aurora kinase B = Aurora kinase B (Homo sapiens, UniProt Q96GD4); type: functional
Aurora kinase B, sequence (Q96GD4 whole entry): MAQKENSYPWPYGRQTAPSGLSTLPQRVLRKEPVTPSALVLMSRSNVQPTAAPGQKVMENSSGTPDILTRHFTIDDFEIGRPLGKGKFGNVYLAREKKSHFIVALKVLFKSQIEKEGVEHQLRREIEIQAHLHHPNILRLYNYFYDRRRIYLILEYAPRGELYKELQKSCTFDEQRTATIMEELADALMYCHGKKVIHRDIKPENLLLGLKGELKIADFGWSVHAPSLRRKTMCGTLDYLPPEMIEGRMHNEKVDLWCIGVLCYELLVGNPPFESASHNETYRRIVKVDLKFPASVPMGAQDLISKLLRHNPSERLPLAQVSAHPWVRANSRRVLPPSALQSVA

FAD-linked sulfhydryl oxidase ALR, sequence (P55789 whole entry): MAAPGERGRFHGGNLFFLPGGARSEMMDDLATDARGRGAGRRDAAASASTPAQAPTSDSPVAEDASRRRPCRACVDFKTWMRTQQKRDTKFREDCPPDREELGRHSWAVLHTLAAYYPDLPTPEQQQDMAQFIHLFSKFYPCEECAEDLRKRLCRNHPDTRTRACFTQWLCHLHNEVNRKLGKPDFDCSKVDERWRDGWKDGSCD

CC1=NN(Cc2ccccc2)C(=O)C1C(c1ccccc1)C(C#N)C#N (stereo unspecified)
AC50 [1]: 5.37 µM (active)
AC50 [2]: 3.54 µM (active)
EC50 (Protein RecA): 2.22 µM (active)
IC50 (Genome polyprotein): 55.4 µM (active)

Cc1ccccc1CN1C[C@@H]2C[C@@H](c3ccc4nsnc4c3)N3CCC[C@@]23C1=O
IC50 [3]: 34.1 µM (inactive)

O=C(N=Nc1c(O)[nH]c2ccccc12)c1cccc(S(=O)(=O)Nc2ccccc2Cl)c1
IC50 (CHO-K1): > 66.2 µM (inactive)
IC50 [4]: > 49.8 µM (inactive)
IC50 [5]: 1.01 µM (active)
IC50 [6]: > 49.8 µM (inactive)
IC50 (Orexin receptor type 2 [7]): > 88.8 µM (inactive)
IC50 (Orexin receptor type 2 [8]): > 50 µM (inactive)

N=C(NOC(=O)c1ccc2ccccc2c1)c1ccccc1Cl
EC50 [9]: 1.8 µM (active)
EC50 [10]: 8.76 µM (active)
AC50 [11]: 2.34 µM (active)

CC(Nc1cncc(-n2cnc3ccccc32)n1)c1ccc(F)cc1 (stereo unspecified)
Ki (Aurora kinase A): 1.26 µM (active)
Ki (Aurora kinase B): 0.0794 µM (active)
